Read-outs that look alike come from different tables or passages of the source.
Molecular target: AChE (Musca domestica, UniProt Q7YWJ9)
Experiment: biochemical
Format: biochemical, fly
Description: AChE (E.C. 3.1.1.7) (BR, 200 u/mg) from fly’s head and BuChE (E.C. 3.1.1.8) (BR, 20 u/mg) from horse serum were purchased from Shanghai Yuanye biological technology Co. Ltd (Shanghai, China).
The inhibitory activities of the compounds against AChE were evaluated according to Ellman’s coupled enzyme assay[47] with the following modifications. 90 μL potassium phosphate buffer (PBS, 0.1 M, pH 7.4), 10 μL the solution of 2 units/mL AChE in 0.1 M PBS (pH 7.4) and 10 μL the solution of 200 μM test compounds in the mixed solution of methanol-PBS (pH 7.4) (1:9, V/V) were added to each well of a 96-well plate. The methanol-PBS solution was used as a blank control. After incubation at room temperature for 10 min, 60 μL the solution of 10 mM DTNB in PBS was added into each the well. The plate was placed on crushed ices and cooled for 20 min. To each the well was added 30 μL the solution of 7.5 mM ATCh in PBS (pH 7.4). […] Each test was performed in triplicate. Inhibition rates of the enzyme were calculated relative to a control sample. The inhibitory activities against BuChE were measured as described above for AChE, using 0.7 unit/mL BuChE and 4 mM BuTCh instead of AChE and ATCh as the enzyme and substrate, respectively.
The probit value of the average inhibition rate for each test concentration and the corresponding lg[concentration] were used to establish enzyme inhibition regression equation by the linear least-square fitting method. IC50 values were calculated from the equations.

[1] = Estimated values based on the results in Table 1 (inhibition rate at 10 μM), read-out: IC50 AChE, estimated values
[2] = test concentration of the compound 10 μM

Sequence of AChE (Q7YWJ9 81-659): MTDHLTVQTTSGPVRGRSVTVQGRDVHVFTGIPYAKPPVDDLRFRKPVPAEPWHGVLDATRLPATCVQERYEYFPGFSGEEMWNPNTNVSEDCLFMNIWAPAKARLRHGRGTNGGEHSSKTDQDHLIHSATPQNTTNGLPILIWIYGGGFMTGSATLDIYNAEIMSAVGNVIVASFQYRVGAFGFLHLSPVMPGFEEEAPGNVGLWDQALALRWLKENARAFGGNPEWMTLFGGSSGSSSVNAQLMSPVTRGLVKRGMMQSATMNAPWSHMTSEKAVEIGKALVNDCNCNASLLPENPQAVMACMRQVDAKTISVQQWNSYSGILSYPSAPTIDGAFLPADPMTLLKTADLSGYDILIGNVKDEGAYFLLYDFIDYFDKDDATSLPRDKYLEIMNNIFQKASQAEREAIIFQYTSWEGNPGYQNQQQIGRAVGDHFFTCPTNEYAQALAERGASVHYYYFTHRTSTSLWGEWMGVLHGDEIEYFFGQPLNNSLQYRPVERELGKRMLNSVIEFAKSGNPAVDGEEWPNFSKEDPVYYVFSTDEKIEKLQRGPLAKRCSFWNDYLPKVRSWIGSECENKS

Row | Structure (SMILES) | IC50 [1] [µM] | Inhibition rate (%) [2] | other results
1 | Cn1c2c(c3ccccc31)CC[N+](c1ccc(Br)cc1F)=C2.[Br-] [Compound A32] | > 10 | 11.1 ± 2.8 opq % | –
2 | CCOC(=O)Cn1c2c(c3ccccc31)CC[N+](c1ccccc1)=C2.[Br-] [Compound A45] | > 10 | 38.8 ± 4.6 j % | –
3 | COc1ccccc1[N+]1=Cc2c(c3ccccc3n2C)CC1.[Br-] [Compound A17] | > 10 | 5.8 ± 2.4 qrs % | –
4 | Cn1c2c(c3ccccc31)CC[N+](c1cccc(C(F)(F)F)c1)=C2.[Br-] [Compound A26] | > 10 | 12.8 ± 2.1 kln % | –
5 | Cn1c2c(c3ccccc31)CC[N+](c1cccc([N+](=O)[O-])c1)=C2.[Br-] [Compound A28] | > 10 | 14.5 ± 3.9 mnop % | –
6 | Cn1c2cc(F)ccc2c2cc[n+](-c3ccccc3)cc21.[Br-] [Compound B36, 7-Fluoro-9-methyl-2-phenyl-β-carboline bromide] | – | 76.2 ± 1.1 k % | IC50 (read-out: IC50 ± S.D AChE): 2.61 ± 0.51 µM
7 | Cn1c2c(c3ccccc31)CC[N+](c1ccc(Br)cc1Br)=C2.[Br-] [Compound A33] | – | no activity | IC50 (10 μM, read-out: IC50 AChE, NA): > 10 µM; Inhibition rate (%) (test concentration of the compound 10 μM, 10 µM): −7.0 ± 8.3 vw %
8 | Cn1c2c(c3ccccc31)CC[N+](c1cccc(F)c1)=C2.[Br-] [Compound A3] | > 10 | 22.4 ± 1.1 l % | –
9 | Cc1ccc(N2CCc3c(n(C)c4ccccc34)C2)cc1 [Compound C1, 9-methyl-2-p-toly-1,2,3,4-tetrahydro-β-carboline] | – | – | IC50 (10 μM, read-out: IC50 AChE, NA): > 10 µM; inhibition at 10 µM (test concentration of the compound 10 μM, read-out: Inhibition rate (%)): -2.3 ± 3.2%
10 | Cn1c2ccccc2c2cc[n+](-c3ccccc3O)cc21.[Br-] [Compound B14, 9-Methyl-2-(2-hydroxyhenyl)-β-carboline bromide] | > 10 | 23.9 ± 4.3 v % | –
11 | Cn1c2ccccc2c2cc[n+](-c3c(F)cccc3F)cc21.[Br-] [Compound B29, 9-Methyl-2-(2,6-difluorophenyl)-β-carboline bromide] | ~10 | 48.5 ± 3.1 pq % | –
12 | Cn1c2c(c3ccccc31)CC[N+](c1ccccc1F)=C2.[Br-] [Compound A2] | > 10 | 15.1 ± 2.8 mnop % | –
13 | COc1ccc2c(c1)c1cc[n+](-c3ccccc3)cc1n2C.[Br-] [Compound B34, 6-Methoxy-9-methyl-2-phenyl-β-carboline bromide] | – | 85.7 ± 2.5 ghi % | IC50 (read-out: IC50 ± S.D AChE): 0.94 ± 0.23 µM
14 | Cn1c2c(c3ccccc31)CC[N+](c1cccc(Cl)c1)=C2.[Br-] [Compound A6] | > 10 | 19.3 ± 4.0 lm % | –
15 | CCn1c2ccccc2c2cc[n+](-c3ccccc3)cc21.[Br-] [Compound B38, 9-Ethyl-2-phenyl-β-carboline bromide] | – | 87.8 ± 1.1 efgh % | IC50 (read-out: IC50 ± S.D AChE): 0.76 ± 0.21 µM
16 | Cn1c2c(c3ccccc31)CC[N+](c1cccc(I)c1)=C2.[Br-] [Compound A12] | > 10 | 10.1 ± 2.8 pqr % | –
17 | Cn1c2c(c3ccccc31)CC[N+](c1ccccc1O)=C2.[Br-] [Compound A14] | > 10 | 23.2 ± 2.5 kl % | –
18 | COc1cccc([N+]2=Cc3c(c4ccccc4n3C)CC2)c1.[Br-] [Compound A18] | > 10 | 4.7 ± 1.5 rst % | –
19 | CCCCn1c2ccccc2c2cc[n+](-c3ccccc3)cc21.[Br-] [Compound B42, 9-Butyl-2-phenyl-β-carboline bromide] | – | 65.7 ± 0.6 m % | IC50 (read-out: IC50 ± S.D AChE): 2.91 ± 0.33 µM
20 | Cn1c2ccccc2c2cc[n+](-c3ccccc3Br)cc21.[Br-] [Compound B8, 9-Methyl-2-(2-bromophenyl)-β-carboline bromide] | > 10 | 32.1 ± 0.9 u % | –
21 | Cn1c2c(c3ccccc31)CC[N+](c1c(F)cccc1F)=C2.[Br-] [Compound A29] | – | −3.3 ± 2.0 uv % | IC50 (10 μM, read-out: IC50 AChE, NA): > 10 µM
22 | Br.c1ccc(-n2ccc3c4ccccc4nc-3c2)cc1 [Compound B46, 2-Phenyl-β-carboline bromide] | – | 43.0 ± 1.8 r % | IC50 (read-out: IC50 ± S.D AChE): 18 ± 2.42 µM
23 | Cn1c2ccccc2c2cc[n+](-c3cc(Cl)cc(Cl)c3)cc21.[Br-] [Compound B31, 9-Methyl-2-(3,5-dichlorophenyl)-β-carboline bromide] | > 10 | 18.9 ± 2.5 v % | –

Row | Structure (SMILES) | IC50 [1] [µM] | Inhibition rate (%) [2] | other results
24 | COc1ccccc1-[n+]1ccc2c3ccccc3n(C)c2c1.[Br-] [Compound B17, 9-Methyl-2-(2-methoxylphenyl)-β-carboline bromide] | > 10 | 41.0 ± 2.9 rs % | –
25 | Cn1c2ccccc2c2cc[n+](-c3ccccc3I)cc21.[Br-] [Compound B11, 9-Methyl-2-(2-iodohenyl)-β-carboline bromide] | > 10 | 43.3 ± 1.8 r % | –
26 | C1=[N+](c2ccccc2)CCc2c1n(Cc1ccccc1)c1ccccc21.[Br-] [Compound A44] | > 10 | 31.2 ± 4.4 ef % | –
27 | Brc1ccc([N+]2=Cc3[nH]c4ccccc4c3CC2)cc1.[Br-] [Compound A47] | > 10 | 16.0 ± 1.7 mnop % | –
28 | Cc1cccc([N+]2=Cc3c(c4ccccc4n3C)CC2)c1.[Br-] [Compound A21] | > 10 | 28.6 ± 1.7 k % | –
29 | Cn1c2cc(Cl)ccc2c2cc[n+](-c3ccccc3)cc21.[Br-] [Compound B37, 7-Chloro-9-methyl-2-phenyl-β-carboline bromide] | – | 89.9 ± 0.7 def % | IC50 (read-out: IC50 ± S.D AChE): 0.57 ± 0.08 µM
30 | CC(C)Cn1c2ccccc2c2cc[n+](-c3ccccc3)cc21.[Br-] [Compound B43, 9-Iso-butyl-2-phenyl-β-carboline bromide] | – | 84.1 ± 0.6 hi % | IC50 (read-out: IC50 ± S.D AChE): 0.98 ± 0.03 µM
31 | Cn1c2c(c3ccccc31)CC[N+](c1ccc(C(F)(F)F)cc1)=C2.[Br-] [Compound A27] | > 10 | 28.4 ± 1.0 k % | –
32 | Cn1c2ccccc2c2cc[n+](-c3cccc([N+](=O)[O-])c3)cc21.[Br-] [Compound B28, 9-Methyl-2-(3-nitrophenyl)-β-carboline bromide] | > 10 | 34.9 ± 1.8 tu % | –
33 | Cn1c2ccccc2c2cc[n+](-c3cccc(C(F)(F)F)c3)cc21.[Br-] [Compound B26, 9-Methyl-2-(3-trifluoromethylphenyl)-β-carboline bromide] | > 10 | 41.0 ± 1.9 rs % | –
34 | C=CCn1c2ccccc2c2cc[n+](-c3ccccc3)cc21.[Br-] [Compound B41, 9-Allyl-2-phenyl-β-carboline bromide] | – | 78.2 ± 1.6 k % | IC50 (read-out: IC50 ± S.D AChE): 1.18 ± 0.3 µM
35 | Cn1c2c(c3ccccc31)CC[N+](c1ccccc1Br)=C2.[Br-] [Compound A8] | > 10 | 5.9 ± 1.0 qrs % | –
36 | CCCn1c2ccccc2c2cc[n+](-c3ccccc3)cc21.[Br-] [Compound B39, 9-Propyl-2-phenyl-β-carboline bromide] | – | 78.8 ± 0.9 jk % | IC50 (read-out: IC50 ± S.D AChE): 3.08 ± 0.66 µM
37 | Cn1c2ccccc2c2cc[n+](-c3ccccc3Cl)cc21.[Br-] [Compound B5, 9-Methyl-2-(2-chlorophenyl)-β-carboline bromide] | > 10 | 38.5 ± 1.9 st % | –
38 | Cn1c2c(c3ccccc31)CC[N+](c1cccc(C#N)c1)=C2.[Br-] [Compound A24] | > 10 | 18.9 ± 0.3 lmn % | –
39 | Cn1c2c(c3ccccc31)CC[N+](c1ccc(C#N)cc1)=C2.[Br-] [Compound A25] | > 10 | 15.6 ± 1.8 mnop % | –
40 | [Br-].c1ccc(Cn2c3ccccc3c3cc[n+](-c4ccccc4)cc32)cc1 [Compound B44, 9-Benzyl-2-phenyl-β-carboline bromide] | – | 47.8 ± 2.0 q % | IC50 (read-out: IC50 ± S.D AChE): 11.2 ± 2.54 µM
41 | Cn1c2ccccc2c2cc[n+](-c3ccccc3)cc21.[Br-] [Compound B1, 9-Methyl-2-phenyl-β-carboline bromide] | – | 71.5 ± 0.3 l % | IC50 (read-out: IC50 ± S.D AChE): 3.18 ± 0.12 µM
42 | Cn1c2ccccc2c2cc[n+](-c3cccc(Br)c3)cc21.[Br-] [Compound B9, 9-Methyl-2-(3-bromophenyl)-β-carboline bromide] | ~10 | 48.8 ± 6.6 q % | –
43 | Cc1ccc2c(c1)c1cc[n+](-c3ccccc3)cc1n2C.[Br-] [Compound B35, 6,9-Dimethyl-2-phenyl-β-carboline bromide] | – | 88.6 ± 2.5 efg % | IC50 (read-out: IC50 ± S.D AChE): 0.42 ± 0.15 µM
44 | Cn1c2c(c3ccccc31)CC[N+](c1ccccc1C#N)=C2.[Br-] [Compound A23] | > 10 | 10.1 ± 1.6 pqr % | –
45 | Cn1c2c(c3ccccc31)CC[N+](c1ccccc1I)=C2.[Br-] [Compound A11] | – | −10.6 ± 3.0 w % | IC50 (10 μM, read-out: IC50 AChE, NA): > 10 µM
46 | Cn1c2c(c3ccccc31)CC[N+](c1cccc(Br)c1)=C2.[Br-] [Compound A9] | > 10 | 16.2 ± 3.3 mno % | –

Source: publication PMC5784158, “New 2-Aryl-9-methyl-β-carbolinium salts as Potential Acetylcholinesterase Inhibitor agents: Synthesis, Bioactivity and Structure–Activity Relationship” (Scientific Reports, 2018)
